Measured values: PMC12508576, “Implementing a trilineage differentiation in the ReproTracker assay for improved teratogenicity assessment” (Frontiers in Toxicology, 2025)
Like-named read-outs stand apart in the source and are kept apart here.

Assays:
[1] = system: hiPSCs differentiating into hepatocyte-like cells; conditions: lineage call; footnote b: previously published data; ref Jamalpoor et al., 2022; cited from earlier work
[2] = read-out: Human therapeutic cmax, Table 1 (R3 I (2021), Schulz et al. (2020) and others); cited from earlier work
[3] = system: hiPSCs trilineage differentiation (cardiomyocytes, hepatocytes, neural rosette-like cells); experiment: ReproTracker trilineage differentiation, overall teratogenicity prediction; conditions: for LOAEL compared with respective human therapeutic Cmax: Figure 4; for ReproTracker results LOAEL: lowest tested concentration with significant decrease of at least one biomarker, trilineage assay, 'N.d. up to x' given as > x
Source text: In ReproTracker, teratogenicity prediction of test compounds is based on a Weight of Evidence (WoE) approach, which considers both the significant decrease in biomarker expression and the morphological/functional changes following exposure to test compounds throughout differentiation assays.
This threshold, for any given biomarker, is defined as the average minus one time the standard deviation (SD) of the biomarker expression levels in solvent-exposed control cultures throughout the experiment. Reduced expression of the selected biomarkers below the set threshold in a concentration-dependent manner, upon exposure to a minimum of 2 consecutive non-cytotoxic concentrations would be considered significant (noted as +). A decrease in expression below the threshold without a clear dose-response would lead to an equivocal classification (noted as (+)). An increase in expression or a lack of response would be considered negative (noted as -). Disruption of morphology/functionality of the cultures upon compound exposure at the two highest tested concentrations in all biological replicates is considered as a morphological disruption (noted as +). Absence of significant effects results in a negative score (noted as -).
For each differentiation assay, the expression of two biomarkers and a morphological/functional read-out are considered. In the hepatocyte and cardiomyocyte differentiation, FOXA2 and BMP4 are considered germ-layer-specific biomarkers, while AFP and MYH6 are considered cell-specific biomarkers, respectively. When applying the WoE approach, the cell-specific biomarkers in hepatocyte and cardiomyocyte differentiation are given higher weight compared to the germ-layer specific biomarkers and morphology/functionality. For the neural differentiation, both PAX6 and NESTIN are given equal weight as they are considered cell-specific markers. In this case, both biomarkers are given higher weight than the morphological read-out.
Every measurement/observation is assigned a score (positive, negative, or equivocal). […] In the ReproTracker assay, a compound is identified as a teratogen if it receives a positive score in at least one of the trilineage differentiation assays (cardiomyocyte, hepatocyte, or neural differentiation). […] If neither biomarker expression levels nor morphology/functionality are affected in any of the differentiation assays, the response is considered negative.

[4] = system: hiPSCs differentiating into neural rosette-like cells
[5] = system: hiPSCs trilineage differentiation (cardiomyocytes, hepatocytes, neural rosette-like cells); conditions: based on effects on cardiomyocytes and/or hepatocytes only; ref Jamalpoor et al., 2022; cited from earlier work
[6] = system: hiPSCs differentiating into cardiomyocyte-like cells; experiment: ReproTracker cardiomyocyte differentiation assay
[7] = system: hiPSCs differentiating into hepatocyte-like cells; experiment: ReproTracker hepatocyte differentiation assay
human = conditions: Table 1 (R3 I (2021), Schulz et al. (2020) and others); cited from earlier work
[8] = lineage call (positive/equivocal/negative)

Structure (SMILES)	ReproTracker results Hepatocyte-like cells [1]	Cmax [2]	LOAEL compared with respective human therapeutic Cmax [3]	ReproTracker results LOAEL [3]	ReproTracker results LOAEL ([3]; listed as diltiazem)	ReproTracker results Neural rosette-like cells [4]	LOAEL before inclusion of the neural differentiation readout [5]	ReproTracker results Cardiomyocyte-like cells [6, 8]	ReproTracker results Neural rosette-like cells [4, 8]	ReproTracker results Hepatocyte-like cells [7, 8]	In vivo classification H (human)	ReproTracker results Cardiomyocyte-like cells [6]	ReproTracker results Hepatocyte-like cells [7]
COc1ccc([C@@H]2Sc3ccccc3N(CCN(C)C)C(=O)[C@@H]2OC(C)=O)cc1 [Diltiazem]	Positive	60 to 300 nM	higher	≤7.8 µM	≤ 7.8 µM	Positive	31 µM						
Nc1cccc2c1C(=O)N(C1CCC(=O)NC1=O)C2=O (centres unmarked) [Pomalidomide]		300 to 400 nM	higher	≤12.5 µM				Positive	Positive	Positive	T (presumed)		
CO [Methanol]		98700 nM		N.d. up to 1000 µM		Negative					NT (presumed)	Negative	Negative
